According to patent US20160304957A1, “TREATMENT AND MODULATION OF GENE EXPRESSION AND SKIN AGING” (DSM NUTRITIONAL PRODUCTS LTD., priority 2006, published 2016):

Key:
HaCaT cells [1] = system: HaCaT cells
Source text: HaCaT cells were obtained from Prof. Fusenig, German Cancer Research Centre, Heidelberg. To gather cells more representative for the upper epidermal layer, we cloned the original cells by endpoint dilution. […] Cytokeratins were detected using anti-cytokeratin clones AE1/AE3 (Boehringer Mannheim, Germany) and anti-cytokeratin 1,10 antibody (Biogenesis Ltd., Poole, UK), respectively. […] Cells were propagated in FAD medium (DMEM/HAM's F12 3:1, Invitrogen); 5% NuSerum IV culture supplement and Miton™ 1:1000 (both Becton Dickinson, Bedford, Mass., USA). On day 0 of the experiment, cells were seeded at 2×10^5 cells per 60 mm dish. Cells were counted using a Coulter Multisizer (IG Instrumenten Gesellschaft, Zurich, Switzerland). […] On days 1 and 2, the media were replaced with fresh β-carotene-containing FAD medium without phenol red; 2% NuSerum; penicillin/streptomycin.
β-Carotene stock solutions and β-carotene-containing media were prepared under reduced light conditions. All-E-β-carotene was synthesized by DSM Nutritional Products (Kaiseraugst, Switzerland). β-carotene was dissolved in tetrahydrofurane (THF containing 0.025% butyl hydroxytoluol; Fluka Chemie A G, Buchs, Switzerland). Immediately before preparing the β-carotene stock solution, THF was purified over a basic aluminum oxide grade 1 (Camag, Muttenz, Switzerland) column. The n-carotene stock solution was prepared fresh for each experiment, and stored under argon at −20° C. until use. To prepare β-carotene-containing medium, the β-carotene stock solution was first diluted 1:1 with ethanol. This β-carotene/solvent mixture was then added to the cell culture medium to give a final concentration of 0.5, 1.5, or 3 μM β-carotene. β-carotene-containing medium was prepared fresh for the daily medium changes. The solvent concentration in the medium was kept constant at 0.5% for all treatment conditions.
All extraction and analytical procedures were carried out in brown glass, and under reduced light conditions. Acetonitrile, tert-butylmethylether, acetone and ethanol p. a. were from E. Merck K G (Darmstadt, Germany). Ammonium acetate p.a., butylated hydroxy toluene p.a., tetrahydrofuran p.a., triethylamine p.a., were from Fluka Chemie A G (Buchs, Switzerland). HPLC grade solvents for stock solutions, dilutions, and sample solvent mixtures were additionally purified over basic aluminum oxide grade 1 (Camag, Muttenz, Switzerland). To determine the β-carotene content of cells, the cell layer was washed 5 times with PBS/2% BSA. The cells were detached by trypsin/EDTA 0.05/0.02% and centrifuged at 10,000×g for 1 minute Cell pellets were lysed with acetone containing 0.025% BHT (v/w), vortex-mixed and dried in a speed-vac. The dried residue was extracted with ethanol/tBME/THF, 9:5:1, containing 0.025% of BHT (v/w) by vigorous vortex-mixing for one minute, and centrifugation for 3 minutes at 10,000×g. An aliquot of the clear supernatant was injected into the HPLC system. Cell culture medium was directly extracted with the solvent mixture described above, and the extract was treated as described for the cell pellets.
The HPLC system consisted of a 520 pump, a 565 autosampler cooled at 6° C., a 540+ diode array detector, a SDU 2003 solvent degasser unit and the Chroma 3000 data analysis system from Bio-Tek Instruments (Basel, Switzerland). A Vydac 218TP54 column (250×4.5 mm i.d., 300 angstrom pore wide) from the Separation Group (Hesperia, USA) was used for separation.

HaCaT cells [2] = experiment: Depletion of cellular β-carotene content by UVA irradiation, HPLC; assay type: in vitro ADME, human; settings: 270 kJ/m^2 UVA
Procedure: On day 3 of the experiment, cells were washed six times with Ca/Mg-free PBS containing 2% BSA, and then irradiated with light with a Hönle sun lamp Sol 500 (Dr. Hönle, Plannegg, Germany) at a dose of 270 kJ/m^2 in Ca/Mg-free PBS (2 hour exposure time at […]). The experimental schedule was chosen because the cells had optimal UVA sensitivity after 48 hours in culture. […] Confluent cultures were much less sensitive to irradiation.

TIMP-1 = experiment: ELISA of TIMP-1 release into cell culture supernatant of HaCaT cells; assay type: cell-based, human; settings: β-carotene, with or without UVA
Procedure: HaCaT cells were supplemented with 0.5, 1.5, or 3 μM β-carotene for 2 days prior to UVA (270 kJ/m^2) irradiation. MMP-1 and TIMP-1 secretion 24 hours after irradiation was analyzed by ELISA. Each condition was represented by three replicates in the experiment. Values are means±standard error.
Release of MMP-1, and TIMP-1 into cell culture supernatant was determined by ELISA at 24 hours after irradiation. MMP-1 and TIMP-1 release was measured using MMP-1 and TIMP ELISA from CALBIOCHEM (San Diego, Calif., USA). The ELISAs were performed according to the manufacturer's instructions.

caspase-3 = experiment: Caspase-3 activity, CaspACE Assay System; assay type: cell-based, human
Procedure: Cells were supplemented with β-carotene for 2 days and prior to UVA irradiation (270 kJ/m^2). Caspase-3 activity was determined at 5 hours after irradiation. Values are mean±standard error of an experiment with four replicates.
Caspase-3 activity 5 hours after UVA irradiation was quantified in five separate experiments using the CaspACE™ Assay System (Promega/Catalys, Switzerland).

photosensitization = settings: EPP patients, 180 mg/d; cited from earlier work
sunburn cells = settings: supplementation, humans; cited from earlier work
skin carcinogenesis = settings: supplementation, rodents; cited from earlier work
non-melanoma skin cancer = settings: clinical intervention trials; cited from earlier work

In the case of `CC1=C(/C=C/C(C)=C/C=C/C(C)=C/C=C/C=C(C)/C=C/C=C(C)/C=C/C2=C(C)CCCC2(C)C)C(C)(C)CCC1` [β-carotene, All-E-β-carotene], the Retinol cellular content (HaCaT cells [1]) is reported as “<LOD”, the “Retinyl Palmitate cellular content” value (HaCaT cells [1]) is reported as “<LOD” and the “cellular β-carotene content relative to 72 hours” value (HaCaT cells [1]) is reported as “about half”. The “retinol or retinyl esters formed from β-carotene” value (HaCaT cells [1]) was “do not produce detectable amounts”, the “time of peak cellular β-carotene concentration” value (HaCaT cells [1]) was 72 h and the “effect of UVA on cellular β-carotene content” value (HaCaT cells [2]; 0.5 μM β-carotene 2 days) was “did not reduce”. For the same compound, the “cellular β-carotene stores remaining after UVA irradiation” value (HaCaT cells [2]; 1.5 or 3 μM β-carotene 2 days) was “about 13%”, the TIMP-1 protein level (TIMP-1) was “not significantly influenced” and the caspase-3 activation (caspase-3; β-carotene alone, unirradiated) was “Neither UVA nor β-carotene alone activated caspase-3”. The caspase-3 activity (caspase-3; β-carotene with UVA 270 kJ/m^2, 5 hours after irradiation) was “induce caspase-3 activity in a dose-dependent manner”, the symptoms of photosensitization (photosensitization) was “alleviated the symptoms of photosensitization” and the “number of sunburn cells” value (sunburn cells) was “did not alter the number of sunburn cells”. The skin carcinogenesis (skin carcinogenesis) was “reduced skin carcinogenesis” and the “prevention of non-melanoma skin cancer” value (non-melanoma skin cancer) was “no significant prevention”.
